Measurements: ChEMBL document CHEMBL3244356, “Synthesis of some pentazocine metabolites and related compounds” (1977)
Active and inactive are the calls of the source. No cut-off for these calls is given here.

Key:
[1] = species on record: Rattus norvegicus; assay: Antinociceptive activity in rat assessed as protection from p-phenylquinone-induced writhing; type: functional
[2] = species on record: Rattus norvegicus; assay: Inhibition of meperidine-induced antinociceptive activity in rat by D'Amour-Smith thermal stimulus test; type: functional
[3] = system: Rattus norvegicus; assay: Antinociceptive activity in rat at 120 mg/kg, sc by D'Amour-Smith thermal stimulus test; type: functional, organism-based; set-up: dose 120 mg/kg
[4] = system: Rattus norvegicus; assay: Inhibition of meperidine-induced antinociceptive activity in rat at 80 mg/kg, sc by D'Amour-Smith thermal stimulus test; type: functional, organism-based; set-up: dose 80 mg/kg
[5] = system: Rattus norvegicus; assay: Antinociceptive activity in rat assessed as protection from p-phenylquinone-induced writhing at 100 mg/kg, sc; type: functional, organism-based; set-up: dose 100 mg/kg
[6] = system: Rattus norvegicus; assay: Antinociceptive activity in rat at 60 mg/kg, sc by D'Amour-Smith thermal stimulus test; type: functional, organism-based; set-up: dose 60 mg/kg
[7] = system: Rattus norvegicus; assay: Inhibition of meperidine-induced antinociceptive activity in rat at 40 mg/kg, sc by D'Amour-Smith thermal stimulus test; type: functional, organism-based; set-up: dose 40 mg/kg

C/C(=C\CN1CC[C@@]2(C)c3cc(O)ccc3C[C@@H]1[C@@H]2C)CO (racemic)
ED50 [1]: 37 mg/kg | AD50 [2]: >320 mg/kg

CCOC(=O)CN1CC[C@@]2(C)c3cc(O)ccc3C[C@@H]1[C@@H]2C (racemic)
Activity [3]: inactive | AD50 [2]: 66 mg/kg

CC(=O)CCN1CC[C@@]2(C)c3cc(O)ccc3C[C@@H]1[C@@H]2C (racemic)
Activity [3]: inactive | ED50 [1]: 22 mg/kg | AD50 [2]: 1.7 mg/kg

C[C@H]1[C@H]2Cc3ccc(O)cc3[C@]1(C)CCN2CCC(C)(C)O (racemic)
Activity [3]: inactive | ED50 [1]: 37 mg/kg | inhibition [4]: inactive

CC(C)C(=O)CN1CC[C@@]2(C)c3cc(O)ccc3C[C@@H]1[C@@H]2C (racemic)
AD50 [2]: 2.8 mg/kg

C/C(=C\CN1CC[C@@]2(C)c3cc(O)ccc3C[C@@H]1[C@@H]2C)C(=O)O (racemic)
Activity [5]: inactive | AD50 [2]: inactive

C[C@H]1[C@H]2Cc3ccc(O)cc3[C@]1(C)CCN2CC(=O)O (racemic)
Activity [6]: inactive | inhibition [7]: inactive

CC(C)=CCN1CC[C@]2(C)c3cc(O)ccc3C[C@H]1[C@H]2C [(+)-PENTAZOCINE]
Activity [3]: inactive | ED50 [1]: 2.3 mg/kg | AD50 [2]: 3.9 mg/kg
